Legend:
[1] = racemic γ-CEHC administered to SD rat intravenously; cited from earlier work
[2] = Hydrolyzability test in rat liver microsome solution; assay type: in vitro ADME
Protocol: (§1) d-α-tocotrienol N,N-dimethylaminoacetate hydrochloride (Example 5:hereinafter, d-α-T3DMA), d-α-tocotrienol N-methylaminoacetate hydrochloride (Example 2:hereinafter, d-α-T3MA), d-γ-tocotrienol N,N-dimethylaminoacetate hydrochloride (Example 6:hereinafter, d-γ-T3DMA), d-γ-tocotrienol N-methylaminoacetate hydrochloride (Example 4:hereinafter, d-γ-T3MA), or d-γ-tocotrienolaminoacetate hydrochloride (Example 3:hereinafter, d-γ-T3AA) were added to a solution of SD rat liver microsome and rat plasma in an isotonic phosphate buffer, and d-α-tocotrienol and d-γ-tocotrienol produced in the reaction solution at 37° C. with time were measured by high performance liquid chromatography (HPLC).
(§2) As Comparative Example, a hydrolysis test was performed on d-α-tocotrienolsuccinic acid ester (hereinafter, d-α-T3S) and d-γ-tocotrienolsuccinic acid ester (hereinafter, d-γ-T3S) similarly.
(§3) HPLC conditions: Column was CAPCELL PAK UG120, a mobile phase was methanol-acetonitrile (5:5 v/v), a rate was 0.7 ml/min, and detection was carried out by absorbance of 283 nm and fluorescent intensity (excitation 298 nm, fluorescent 325 nm).
(§4) Dynamic parameters of production of d-α-tocotrienol and d-γ-tocotrienol in a solution of rat liver microsome and rat plasma according to Micaelis-Menten model are shown in Tables 4 and 5.

[3] = Animal Test Example 1: kinetics in rat after intravenous administration (plasma, liver, heart, kidney); set-up: species or system SD rat; details: in vivo, 25 mg/kg
Protocol: 1) SD male rats (weighing 260-285 g) were used while a diet was changed to crystal sugar from 16 hours before drug administration. d-α-T3DMA (Example 5), d-γ-T3DMA (Example 6), d-α-tocotrienol (hereinafter, d-α-T3), or d-γ-tocotrienol (hereinafter, d-γ-T3) was administered into left femoral vein under slight anesthesia. A solution of d-α-T3DMA or d-γ-T3DMA to be administered was used by dissolving it in distilled water containing 10% propylene glycol, and filtering with membrane filter (0.22 μm). A solution of d-α-T3 and d-γ-T3 to be administered was used by dissolving it using a nonionic surfactant HCO-60. Administration amounts were set to be tocotrienol equivalent 25 mg/kg, respectively. 0.25, 0.5, 1, 2, 4, 8 and 24 hours after administration, blood was taken under ether anesthesia, and liver, heart and kidney were taken. Plasma was rapidly separated and taken. A 1.15% potassium chloride solution was added at a 3-fold amount of each organ weight was added thereto, which was homogenated. 0.7 ml of ethanol was added to 0.2 ml of each sample, the mixture was stirred for 2 minutes, centrifuged, and the supernatant was analyzed by the aforementioned HPLC.

[4] = Hydrolyzability test in rat plasma solution; assay type: in vitro ADME; details: 37° C., production of tocotrienol, Michaelis-Menten model
Protocol: as §1, §2, §3, §4

[5] = Test Examples 2 and 3: S-γ-CEHC kinetics in plasma after intravenous administration to rat; assay type: in vivo, SD rat
Protocol: A SD male rat, 7 weeks old, was used. A solution of γ-T3DMA to be administered was prepared into a d-γ-tocotrienol equivalent 25 mg/ml aqueous solution. The solution was administered intravenously into left femoram vein under slight ether anesthesia, blood was taken from external jugular vein with an injector for tuberculin treated with heparin with time, and plasma was taken after centrifugation. Plasma was stored at −80° C. till HPLC measurement. A γ-CEHC level in plasma was measured by the HPLC method which can fractionally quantitate optical isomers S-γ-CEHC and R-γ-CEHC (Hattori A., Fukushima T., Imai K., Anal. Biochem., 281, 209-215 (2000)). […] R-γ-CEHC was not detected in plasma after administration and only S-γ-CEHC was detected therein. […] Here, a S-γ-CEHC level after administration of racemic γ-CEHC is a value at racemic γ-CEHC 1 mg/kg. […] S-γ-CEHC in plasma was rapidly elevated after administration of γ-T3DMA and reached Cmax 1 hour after administration. […] Mean Retention Time (MRT) of a γ-T3DMA administered group is 6.64 hr and is an about 7-fold value as compared with MRT 1.00 hr of a racemic γ-CEHC administered group. From the foregoing, it can be understood that γ-T3DMA can enhance the S-γ-CEHC level in the living body and, further, can maintain the S-γ-CEHC level continuously for longer period of time.
The pharmacokinetics parameter represents an average of four animals and standard deviation. A dose is γ-T3 equivalent 25 mg/kg. F(%) was obtained by the following equation: […]
a Obtained by the Following Equation [formula]
wherein AUCS-γ-CEHC,γ-T3DM^Plasma and AUCS-γ-CEHC,racemicγ-CEHC^Plasma means AUC of S-γ-CEHC after administration of γ-T3DMA and racemic γ-CEHC, respectively, and Dγ-T3DMA and Dracemic γ-CEHC means a dose of γ-T3DMA and racemic γ-CEHC, respectively.
b Obtained by the Following Equation [formula]
wherein AUCS-γ-CEHC,γ-TDMA^Plasma means AUC of S-γ-CEHC after administration of γ-TDMA, and Dγ-TDMA means a dose of γ-TDMA.
γ-CEHC kinetics in plasma was studied by administering an aqueous γ-TDMA solution into rat's vein according to the same test procedure as those of Test Example 2. The γ-CEHC in plasma was all S-γ-CEHC and R-γ-CEHC was not detected. […] A level in plasma was rapidly elevated after administration, reached Cmax after 1 hr, and a S-γ-CEHC level was elevated clearly. […] Thus, it was shown that a level of S-γ-CEHC in the living body is efficiently elevated. Mean Retention Time (MRT) of a γ-TDMA administered group was 8.19 hr and was about 8-fold value as compared to MRT 1.00 hr of a racemic γ-CEHC administered group.

[6] = Water-solubility test; details: 0.250 mmol in 5 ml distilled water, stirred at 20° C. for 24 hours, HPLC
[7] = liver microsome, 37° C., production of tocotrienol, Michaelis-Menten model
[8] = liver microsome, 37° C., production of tocotrienol, Michaelis-Menten model, read-out: Km

Compound | Km [2] [µM] | Vmax/Km [2] [min⁻¹] | Vmax [2, 7] [M/min] | Km [4] [µM] | Vmax [4] [M/min] | also measured
Cc1c(O)cc2c(c1C)O[C@@](C)(CCC(=O)O)CC2 [R-γ-CEHC] | – | – | – | – | – | biological half-life in plasma [1]: about 1 hour
Cc1c(O)cc2c(c1C)OC(C)(CCC(=O)O)CC2 (stereo not shown) [S-γ-CEHC] | – | – | – | – | – | biological half-life in plasma [1]: ≤ 2 minutes
CC(C)=CCC/C(C)=C/CC/C(C)=C/CC[C@]1(C)CCc2c(C)c(OC(=O)CN(C)C)c(C)c(C)c2O1.Cl [d-α-T3DMA, d-α-tocotrienol N,N-dimethylaminoacetate hydrochloride] | 5970 | 0.02455 | 0.0001465 | 793 | 9.187e-08 | bioavailability of d-α-T3 in liver [3]: 130%
CNCC(=O)Oc1c(C)c(C)c2c(c1C)CC[C@@](C)(CC/C=C(\C)CC/C=C(\C)CCC=C(C)C)O2.Cl [d-α-T3MA, d-α-tocotrienol N-methylaminoacetate hydrochloride] | 109 | 0.01111 | 1.878e-06 | 1550 | 5.808e-07 | –
CC(C)=CCC/C(C)=C/CC/C(C)=C/CC[C@]1(C)CCc2c(C)c(OC(=O)CCC(=O)O)c(C)c(C)c2O1 [d-α-T3S, d-α-tocotrienolsuccinic acid ester, reference compound] | 30.3 | 0.001846 | 5.588e-08 | 506 | 4.946e-08 | –
CC(C)=CCC/C(C)=C/CC/C(C)=C/CC[C@]1(C)CCc2cc(OC(=O)CN)c(C)c(C)c2O1.Cl [d-γ-T3AA, d-γ-tocotrienol aminoacetate hydrochloride] | – | – | 7.716e-05 | 5510 | 3.594e-05 | Km [2, 8]: 1560 µM
CC(C)=CCC/C(C)=C/CC/C(C)=C/CC[C@]1(C)CCc2cc(OC(=O)CN(C)C)c(C)c(C)c2O1.Cl [d-γ-T3DMA, d-γ-tocotrienol N,N-dimethylaminoacetate hydrochloride] | – | – | 0.000323 | 786 | 7.592e-06 | Km [2, 8]: 5580 µM; R-γ-CEHC in plasma after administration ([5]; intravenous, HPLC separating optical isomers): not detected; MRT as fold of MRT of racemic γ-CEHC administered group ([5]; intravenous, S-γ-CEHC in plasma): about 7 fold
CNCC(=O)Oc1cc2c(c(C)c1C)O[C@](C)(CC/C=C(\C)CC/C=C(\C)CCC=C(C)C)CC2.Cl [d-γ-T3MA, d-γ-tocotrienol N-methylaminoacetate hydrochloride] | – | – | 0.0001204 | 12700 | 5.178e-05 | Km [2, 8]: 2100 µM
CC(C)=CCC/C(C)=C/CC/C(C)=C/CC[C@]1(C)CCc2cc(OC(=O)CCC(=O)O)c(C)c(C)c2O1 [d-γ-T3S, d-γ-tocotrienolsuccinic acid ester, reference compound] | 22.1 | 0.03244 | 7.161e-07 | 1050 | 1.945e-06 | –
CC(C)=CCC/C(C)=C/CC/C(C)=C/CC[C@]1(C)CCc2cc(O)c(C)c(C)c2O1 [d-γ-tocotrienol] | – | – | – | – | – | solubility in distilled water [6]: below detection limit of HPLC
Cc1c(OC(=O)CN(C)C)cc2c(c1C)O[C@](C)(CCC[C@H](C)CCC[C@H](C)CCCC(C)C)CC2.Cl [γ-TDMA, d-γ-tocopheryl N,N-dimethylaminoacetate hydrochloride] | – | – | – | – | – | MRT as fold of MRT of racemic γ-CEHC administered group ([5]; in vivo, iv): about 8 fold; R-γ-CEHC in plasma after administration ([5]; in vivo, iv): not detected

From patent US6599933B2, “Tocotrienol derivative, process for producing the same and γ-CEHC delivering agent” (Kenko Corporation, priority 2000, dated 2003)
